# From PubChem BioAssay (NCI)
#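 Protocol summary: plate cells (96-well), add compound at 5 concentrations, incubate 48 h, interpolate endpoints linearly. TGI marks complete inhibition of growth.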
# Columns and labels:
# Assay in all cases: NCI-60 cell line screen, 48 h
# A498 renal = tested on: A498 renal
# A549 NSCLC = tested on: A549 NSCLC
# SK-MEL-28 melanoma = tested on: SK-MEL-28 melanoma
# HOP-62 NSCLC = tested on: HOP-62 NSCLC
# MDA-N = tested on: MDA-N
# MOLT-4 leukemia = tested on: MOLT-4 leukemia
# SR leukemia = tested on: SR leukemia
# KM12 colon = tested on: KM12 colon
# HCC-2998 colon = tested on: HCC-2998 colon
# OVCAR-5 ovarian = tested on: OVCAR-5 ovarian
# OVCAR-3 ovarian = tested on: OVCAR-3 ovarian
# NCI-H226 lung = tested on: NCI-H226 lung
# RPMI-8226 leukemia = tested on: RPMI-8226 leukemia
# UACC-62 melanoma = tested on: UACC-62 melanoma
# NCI-H460 lung = tested on: NCI-H460 lung
# SF-295 CNS = tested on: SF-295 CNS
# IGROV1 ovarian = tested on: IGROV1 ovarian
# DU-145 prostate = tested on: DU-145 prostate
# U251 CNS = tested on: U251 CNS
# SNB-75 CNS = tested on: SNB-75 CNS
# SF-539 CNS = tested on: SF-539 CNS
# COLO 205 colon = tested on: COLO 205 colon
# NCI/ADR-RES ovarian = tested on: NCI/ADR-RES ovarian
# 786-0 renal = tested on: 786-0 renal
# SK-MEL-5 melanoma = tested on: SK-MEL-5 melanoma
# T-47D breast = tested on: T-47D breast
# UACC-257 melanoma = tested on: UACC-257 melanoma
# BT-549 breast = tested on: BT-549 breast
# HOP-92 NSCLC = tested on: HOP-92 NSCLC
# EKVX NSCLC = tested on: EKVX NSCLC
# SK-MEL-2 melanoma = tested on: SK-MEL-2 melanoma
# OVCAR-4 ovarian = tested on: OVCAR-4 ovarian
# HCT-116 colon = tested on: HCT-116 colon
# PC-3 prostate = tested on: PC-3 prostate
# MDA-MB-231 breast = tested on: MDA-MB-231 breast
# LOX IMVI melanoma = tested on: LOX IMVI melanoma
# SN12C renal = tested on: SN12C renal
# SK-OV-3 ovarian = tested on: SK-OV-3 ovarian
# ACHN renal = tested on: ACHN renal
# HCT-15 colon = tested on: HCT-15 colon
# TK-10 renal = tested on: TK-10 renal
# SNB-19 CNS = tested on: SNB-19 CNS
# UO-31 renal = tested on: UO-31 renal
# NCI-H23 lung = tested on: NCI-H23 lung
# K-562 leukemia = tested on: K-562 leukemia
# RXF 393 renal = tested on: RXF 393 renal
# OVCAR-8 ovarian = tested on: OVCAR-8 ovarian
# CAKI-1 renal = tested on: CAKI-1 renal
# CCRF-CEM leukemia = tested on: CCRF-CEM leukemia
# MDA-MB-435 = tested on: MDA-MB-435
# MCF7 breast = tested on: MCF7 breast
# SW-620 colon = tested on: SW-620 colon
# M14 melanoma = tested on: M14 melanoma
# HS 578T breast = tested on: HS 578T breast
# HT29 colon = tested on: HT29 colon
# SF-268 CNS = tested on: SF-268 CNS
# NCI-H522 lung = tested on: NCI-H522 lung
# MALME-3M melanoma = tested on: MALME-3M melanoma
structure (smiles),measurement,setting,value
CNC1=CC(=O)C2=C(C1=O)[C@H]1CC[C@]3(C)C(=O)CC[C@H]3[C@@H]1CC2,TGI,A498 renal,43.4 µM
same,TGI,A549 NSCLC,49.9 µM
same,TGI,SK-MEL-28 melanoma,34.4 µM
same,TGI,HOP-62 NSCLC,29.8 µM
same,TGI,MDA-N,25 µM
same,TGI,MOLT-4 leukemia,> 49.1 µM
same,TGI,SR leukemia,> 60.8 µM
same,TGI,KM12 colon,23.6 µM
same,TGI,HCC-2998 colon,31.7 µM
same,TGI,OVCAR-5 ovarian,51 µM
same,TGI,OVCAR-3 ovarian,9.3 µM
same,TGI,NCI-H226 lung,25.5 µM
same,TGI,RPMI-8226 leukemia,48.5 µM
same,TGI,UACC-62 melanoma,31.9 µM
same,TGI,NCI-H460 lung,39.5 µM
same,TGI,SF-295 CNS,29.1 µM
same,TGI,IGROV1 ovarian,16.1 µM
same,TGI,DU-145 prostate,28.8 µM
same,TGI,U251 CNS,> 60.2 µM
same,TGI,SNB-75 CNS,27.8 µM
same,TGI,SF-539 CNS,32.3 µM
same,TGI,COLO 205 colon,33.3 µM
same,TGI,NCI/ADR-RES ovarian,42.1 µM
same,TGI,786-0 renal,38.3 µM
same,TGI,SK-MEL-5 melanoma,27.6 µM
same,TGI,T-47D breast,57.9 µM
same,TGI,UACC-257 melanoma,28.8 µM
same,TGI,BT-549 breast,36 µM
same,TGI,HOP-92 NSCLC,25.7 µM
same,TGI,EKVX NSCLC,29.9 µM
same,TGI,SK-MEL-2 melanoma,17.1 µM
same,TGI,OVCAR-4 ovarian,37.4 µM
same,TGI,HCT-116 colon,35.7 µM
same,TGI,PC-3 prostate,38.9 µM
same,TGI,MDA-MB-231 breast,> 64.8 µM
same,TGI,LOX IMVI melanoma,23.7 µM
same,TGI,SN12C renal,> 52.7 µM
same,TGI,SK-OV-3 ovarian,> 100 µM
same,TGI,ACHN renal,71.4 µM
same,TGI,HCT-15 colon,27.5 µM
same,TGI,TK-10 renal,> 100 µM
same,TGI,SNB-19 CNS,40.8 µM
same,TGI,UO-31 renal,49.2 µM
same,TGI,NCI-H23 lung,19.9 µM
same,TGI,K-562 leukemia,> 57.5 µM
same,TGI,RXF 393 renal,41.1 µM
same,TGI,OVCAR-8 ovarian,29.5 µM
same,TGI,CAKI-1 renal,33.6 µM
same,TGI,CCRF-CEM leukemia,30.4 µM
same,TGI,MDA-MB-435,13.1 µM
same,TGI,MCF7 breast,47.5 µM
same,TGI,SW-620 colon,> 51.6 µM
same,TGI,M14 melanoma,28 µM
Nc1nc2c(c(=O)[nH]1)CN(c1ccc(S(N)(=O)=O)cc1)CN2,TGI,HS 578T breast,> 100 µM
same,TGI,A498 renal,> 100 µM
same,TGI,A549 NSCLC,> 100 µM
same,TGI,SK-MEL-28 melanoma,> 100 µM
same,TGI,HOP-62 NSCLC,> 100 µM
same,TGI,MDA-N,> 100 µM
same,TGI,MOLT-4 leukemia,> 100 µM
same,TGI,SR leukemia,> 100 µM
same,TGI,KM12 colon,> 100 µM
same,TGI,OVCAR-5 ovarian,> 100 µM
same,TGI,OVCAR-3 ovarian,> 100 µM
same,TGI,NCI-H226 lung,> 100 µM
same,TGI,RPMI-8226 leukemia,> 100 µM
same,TGI,UACC-62 melanoma,> 100 µM
same,TGI,NCI-H460 lung,> 100 µM
same,TGI,HT29 colon,> 100 µM
same,TGI,SF-295 CNS,> 100 µM
same,TGI,IGROV1 ovarian,> 100 µM
same,TGI,DU-145 prostate,> 100 µM
same,TGI,U251 CNS,> 100 µM
same,TGI,COLO 205 colon,> 100 µM
same,TGI,NCI/ADR-RES ovarian,> 100 µM
same,TGI,786-0 renal,> 100 µM
same,TGI,SF-268 CNS,> 100 µM
same,TGI,SK-MEL-5 melanoma,> 100 µM
same,TGI,T-47D breast,> 100 µM
same,TGI,UACC-257 melanoma,> 100 µM
same,TGI,BT-549 breast,> 100 µM
same,TGI,HOP-92 NSCLC,> 100 µM
same,TGI,EKVX NSCLC,> 100 µM
same,TGI,SK-MEL-2 melanoma,> 100 µM
same,TGI,NCI-H522 lung,> 100 µM
same,TGI,OVCAR-4 ovarian,> 100 µM
same,TGI,HCT-116 colon,> 100 µM
same,TGI,PC-3 prostate,> 100 µM
same,TGI,MDA-MB-231 breast,> 100 µM
same,TGI,MALME-3M melanoma,> 100 µM
same,TGI,LOX IMVI melanoma,> 100 µM
same,TGI,SN12C renal,> 100 µM
same,TGI,ACHN renal,> 100 µM
same,TGI,HCT-15 colon,> 100 µM
same,TGI,TK-10 renal,> 100 µM
same,TGI,SNB-19 CNS,> 100 µM
same,TGI,UO-31 renal,> 100 µM
same,TGI,K-562 leukemia,> 100 µM
same,TGI,OVCAR-8 ovarian,> 100 µM
same,TGI,CAKI-1 renal,> 100 µM
same,TGI,MDA-MB-435,> 100 µM
same,TGI,MCF7 breast,> 100 µM
same,TGI,SW-620 colon,> 100 µM
same,TGI,M14 melanoma,> 100 µM
